For test [1], the system named is Catharanthus roseus. The experiment in a line: Substrate specificity for NADPH-dependent dehydrogenase of catharanthus roseus supernatant fraction. In kind it is functional.
For test [2], the system named is Catharanthus roseus. The experiment in a line: Substrate specificity for NADPH-dependent dehydrogenase of catharanthus roseus membrane fraction. In kind it is functional.

In the case of `CCCCCCCCC(=O)C(F)(F)F`, the Activity in test [1] and in test [2] was 0 each time.

For the compound `CCOC(=O)CC(C)=O`, the Activity in test [1] and in test [2] was 0 each time.

For `CCOC(=O)C(=O)CC`, the figures for the Activity in test [1] and in test [2] were 68 and 65, respectively.

For `CCC(=O)C(=O)O`, the Activity in test [1] and in test [2] was 0 each time.

In the case of `CCCCCC(=O)C(=O)OCC`, the Activity in test [1] and in test [2] was 50 in each case.

As to `CCOC(=O)C(=O)C(C)C`, the Activity in test [1] and in test [2] was 100 each time.

On to `COC(=O)CC(=O)CCl`, for which the Activity is given as 12 in test [1] and 0 in test [2].

As for `O=CC(O)CO` (stereo not drawn), the Activity in test [1] and in test [2] was 0 each time.

As to `O=C(c1ccccc1)C(F)(F)F`, the Activity was 65 in test [1] and 6 in test [2].

On to `CCOC(=O)C(C)C(C)=O` (stereo not drawn), for which the results for the Activity in test [1] and in test [2] were 29 and 0, respectively.

Consider `CC(C)CC(=O)C(=O)O` [2-Oxoisohexanoate], for which the Activity in test [1] and in test [2] was 0 throughout.

As to `CC(C)C(=O)C(=O)O` [2-Oxoisovalerate], the Activity in test [1] and in test [2] was 0 in each case.

Take `CC=O` [ACETALDEHYDE]: the Activity in test [1] and in test [2] was 0 throughout.

For the compound `CCOC(=O)C(C)=O` [ETHYL PYRUVATE], the Activity in test [1] was 70; in test [2], 59.
